Where two headings read alike, the source gives them in different places.

The test system of one assay is L. major promastigote. The experiment in a line: Primary screening resazurin viability assay, L. major promastigotes. The assay is classed as cell-based, Leishmania major. The settings on record: for EC50: Leishmania major, Fig. 1B, HTS format, promastigotes, read-out: EC50 of reference compound, L. major (black line); for Active compound selection in the 4,000-compound library screen: cut-off 70% proliferation inhibition at the lowest compound concentration (0.2–0.02 µM), duplicate, data not shown. The protocol: (§1) L. major MHOM/IL/81/FRIEDLIN and L. donovani MHOM/ET/67/HU3 promastigotes were cultivated at 28°C in axenic M199 culture medium (Welgene, S. Korea) supplemented with 10% heat-inactivated fetal bovine serum (FBS) (Gibco, United States) and 1% streptomycin/penicillin (Gibco, United States).
(§2) After compound addition to the assay plate (Evotec™ 384-well microplate, Germany), 20,000 L. major promastigote parasites from an exponential phase culture (∼10^7 parasites/mL) were diluted in M199, seeded in 50 µL per well using FlexDrop™ and incubated at 28°C for 28 hours, followed by the addition of 5 mM resazurin sodium salt (Sigma R7017, United States) and further incubation for 20 hours at 28°C. After a 48-hour exposure to compounds, the reference drug (EtBr) or control (1% DMSO), the parasites were fixed with 2% paraformaldehyde (PFA) and plates were read in Victor3™ (Perkin Elmer) at 530 nm (excitation) and 590 nm (emission). This fixation step is not necessary for resazurin readout, but allows flexibility in the automation schedule and increases assay robustness by decreasing metabolic variability between populations across wells and plates.
The effect of compounds on Leishmania viability was assessed by fluorometric measurement of resazurin reduction. […] Reference compounds for antileishmanial activity (EtBr, amphotericin B, miltefosine and paromomycin) were tested (Fig. 1B) as a step of the validation process. […] Assay validation was performed on three separate days using 33 microplates (384 wells/plate) containing only controls. […] After assay validation, we screened a 4,000-compound library containing a number of compounds with known pharmacological properties. […] This assay was done in duplicate and results of each concentration assay are represented as individual graphs in Fig. 1D.

The next assay deals with L. donovani promastigote. The experiment in a line: Resazurin viability assay, L. donovani promastigotes. As to conditions: Leishmania donovani, read-out: EC50 of reference compound, L. donovani (grey dashed line). In kind it is cell-based. The protocol: as §1
as §2, with “plates. Z-factor, calculated as 1−(3×σp+3×σn)/(|μp−μn|), where μp, σp, μn and σn are the means (μ) and standard deviations (σ) of both the positive (p) and negative (n) controls, and other parameters, including DRC plates for verification of the reference drug EC50 (accepted if within the range of 3× higher or lower than a defined value from the literature), coefficient of variation not higher than 10% in the controls and edge effect evaluation, were used for screening validation and hits selection.” for “plates.”
Infection of human macrophage cells in vitro with Leishmania has been previously described as a suitable model for screening and was adopted for our purpose. The 124 active compounds selected from the secondary assay were tested in 10-point dose response with 2-fold serial dilutions starting from 20 µM against promastigotes and intracellular amastigotes of L. major and L. donovani infecting macrophages. The average Z-factor calculated per plate based on the reference drug (amphotericin B) and carrier (1% DMSO) was 0.62 for L. major infection and 0.59 for L. donovani infection, and minimum accepted Z-factor for the analysis was 0.5.
(Resazurin is reduced to fluorescent resorufin, in cell work by metabolically active cells.)

The test system of assay [1] is L. major intracellular amastigotes. The experiment in a line: Intracellular amastigotes assay, L. major infecting THP-1 macrophages (image-based infection ratio). In kind it is cell-based. As to conditions: Leishmania major, 96 h, intracellular amastigotes infecting THP-1 macrophages, 4 days incubation, read-out: L. major EC50 amastigote. As to the method:
(§3) THP-1 cells were cultivated in suspension at a density of 10^5 to 10^6 cells/mL in RPMI (Gibco 1640, United States) medium supplemented with 10% heat-inactivated FBS and 1% streptomycin/penicillin at 37°C and 5% CO2. The differentiation of THP-1 into macrophages was induced by incubation of the cells for 48 hours with phorbol 12-myristate 13-acetate (PMA) at 50 ng/ml. For infection, late-stage L. major or L. donovani rich in metacyclic promastigotes was added to differentiated THP-1 cells (ratio of 50 parasites to 1 host cell) in Evotec™ 384-well microplates using a FlexDrop™ (Perkin Elmer) to dispense 50 µL/well. Compounds were added 24 hours after infection and microplates were incubated at 37°C and 5% CO2 for 4 days. Amphotericin B as the reference compound (positive control) at 10 µM as the EC100 and 1% DMSO (negative control) were used in all the plates for data normalization (see bellow). […] Microplates were read in an Opera confocal microscope (Perkin Elmer), enabling the determination of the infection ratio of the parasites by image analysis. […] The macrophage nuclei and internalized parasites were identified and counted if localized in the foreground previously selected (Figure S1). With this technique, extracellular parasites were not considered in the calculations, and the infection ratio was determined by the number of infected cells divided by the total number of cells after normalization based on the controls. The average infection ratios from the positive and negative controls were normalized to 0% and 100% infection, and the infection ratio read from each compound activity was proportionally distributed within this range. […]
(§4) Infection of human macrophage cells in vitro with Leishmania has been previously described as a suitable model for screening and was adopted for our purpose. […] The average Z-factor calculated per plate based on the reference drug (amphotericin B) and carrier (1% DMSO) was 0.62 for L. major infection and 0.59 for L. donovani infection, and minimum accepted Z-factor for the analysis was 0.5.

Assay [2] has as its system L. donovani intracellular amastigotes. The experiment in a line: Intracellular amastigotes assay, L. donovani infecting THP-1 macrophages (image-based infection ratio). In kind it is cell-based. As to conditions: Leishmania donovani, 96 h, intracellular amastigotes infecting THP-1 macrophages, 4 days incubation, read-out: L. donovani EC50 amastigote. The protocol: as §3, §4

The mark [3] stands for this setting: Fig. 1B, HTS format, promastigotes.

With `CC[n+]1c(-c2ccccc2)c2cc(N)ccc2c2ccc(N)cc21` [EtBr, Ethidium bromide], the EC50 in the assay with L. major promastigote stood at 14 nM; with L. donovani promastigote, 5 nM.

Consider `C[C@@H]1[C@H](O)[C@@H](C)/C=C/C=C/C=C/C=C/C=C/C=C/C=C/[C@H](O[C@@H]2O[C@H](C)[C@@H](O)[C@H](N)[C@@H]2O)C[C@@H]2O[C@](O)(C[C@@H](O)C[C@@H](O)[C@H](O)CC[C@@H](O)C[C@@H](O)CC(=O)O[C@H]1C)C[C@H](O)[C@H]2C(=O)O` [amphotericin B, reference compound], for which the EC50 was found to be 3900 nM in the assay with L. major promastigote, 1300 nM in the assay on L. donovani promastigote (setting [3]), 1060 nM in assay [1] and 820 nM in assay [2].

For `COc1ccc(C[C@H]2NC[C@H](O)[C@H]2OC(C)=O)cc1` [anisomycin], in the assay with L. major promastigote, the “Active compound selection in the 4,000-compound library screen” value (“Active compound selection” for short) is recorded as “active”.

As to `COc1ccc2cc3[n+](cc2c1OC)CCc1cc2c(cc1-3)OCO2` [berberine chloride], the “Active compound selection” value in the assay on L. major promastigote was “active”. As for `O=C1OCCN1/N=C/c1ccc([N+](=O)[O-])o1` [furazolidone], the “Active compound selection” value in the assay with L. major promastigote is recorded as “active”. On to `CCCCCCCCCCCCCCCCOP(=O)([O-])OCC[N+](C)(C)C` [miltefosine], for which the EC50 was 4700 nM in the assay on L. major promastigote and 2700 nM with L. donovani promastigote (setting [3]).

In the case of `CC1CS(=O)(=O)CCN1/N=C/c1ccc([N+](=O)[O-])o1` (centres unmarked) [nifurtimox], the “Active compound selection” value with L. major promastigote is “active”. For `NC(=O)N/N=C/c1ccc([N+](=O)[O-])o1` [nitrofural], in the assay with L. major promastigote, the “Active compound selection” value is given as “active”. Consider `NC[C@@H]1O[C@H](O[C@H]2[C@@H](O)[C@H](O[C@@H]3[C@@H](O)[C@H](N)C[C@H](N)[C@H]3O[C@H]3O[C@H](CO)[C@@H](O)[C@H](O)[C@H]3N)O[C@@H]2CO)[C@H](N)[C@@H](O)[C@@H]1O` [paromomycin], for which the EC50 came to 62500 nM in the assay with L. major promastigote and 13000 nM in the assay on L. donovani promastigote (setting [3]). As for `C=C1C(=O)O[C@H]2[C@H]1CC/C(C)=C/CC[C@@]1(C)O[C@@H]21` [parthenolide], the “Active compound selection” value with L. major promastigote is listed as “active”. The same measure, in the same setting: for `N=C(N)c1ccc(OCCCCCOc2ccc(C(=N)N)cc2)cc1` [pentamidine isethionate] the value was “active”.

A word on the EC50: it is the concentration at which the effect is half-maximal.

The record behind these values is PMC2864270 (PLoS Neglected Tropical Diseases, 2010).
